ChEMBL document CHEMBL1201862, “PubChem BioAssay data set” (2004)
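Assay format: 96-well plates, 48-hour exposure. Abbreviation: GI50, concentration required for 50% inhibition of growth.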 Activity calls are given as the source filed them. Rule as the data show it: active = GI50 up to about 1.1 µM and inactive = higher.

What was measured:
Assay in all cases: inhibition of tumour cell growth, NCI panel, 48 h
[1] = test system: SF-539
[2] = test system: NCI/ADR-RES
[3] = test system: SN12C
[4] = test system: NCI-H460
[5] = test system: KM12
[6] = test system: A498
[7] = test system: UACC-257
[8] = test system: 786-0
[9] = test system: DU-145
[10] = test system: U-251
[11] = test system: ACHN
[12] = test system: SK-MEL-5
[13] = test system: HOP-92
[14] = test system: SNB-19
[15] = test system: K562
[16] = test system: UACC-62
[17] = test system: RXF 393
[18] = test system: MOLT-4
[19] = test system: SNB-75
[20] = test system: HL-60

Measured: GI50

CC(C)(C)[Si](C)(C)O[C@@H](C(=O)OC1C=CCCC1)[C@@H](NC(=O)c1ccccc1)c1ccccc1 (stereo not given in full)
inactive: [1] 61.1 µM | [2] 28.6 µM | [3] 21 µM | [4] 19.9 µM | [5] 25.6 µM | [6] 35.6 µM | [7] 19.7 µM | [8] 23.8 µM | [9] 50.4 µM | [10] 18.2 µM | [11] 19.1 µM | [12] 16.8 µM | [13] 8.99 µM | [14] 28.8 µM | [15] 14 µM | [16] 26.8 µM | [17] 3.68 µM | [18] 14.7 µM | [19] 27.7 µM

CN(C)CC1CN=C(N)O1 (stereo not given)
inactive: [1] > 100 µM | [2] > 100 µM | [3] > 100 µM | [4] > 100 µM | [5] > 100 µM | [6] > 100 µM | [7] > 100 µM | [8] > 100 µM | [9] > 100 µM | [10] > 100 µM | [11] > 100 µM | [12] > 100 µM | [13] > 100 µM | [14] > 100 µM | [15] > 100 µM | [16] > 100 µM | [17] > 100 µM | [18] > 100 µM

CC1(C)OCC=CCO1
inactive: [1] 67.8 µM | [2] > 100 µM | [3] > 100 µM | [4] > 100 µM | [5] > 100 µM | [7] > 100 µM | [9] > 100 µM | [10] > 100 µM | [20] 71.4 µM | [11] > 100 µM | [12] > 100 µM | [13] > 100 µM | [14] > 100 µM | [15] 67.8 µM | [16] > 100 µM | [17] > 100 µM | [18] > 100 µM | [19] > 100 µM

COc1cc(/C=C2\C[C@H]3[C@@H]4CCc5cc(O)ccc5[C@H]4CC[C@]3(C)C2=O)cc(OC)c1OC
inactive: [1] 25.8 µM | [2] 16.8 µM | [3] 15.1 µM | [4] 45.2 µM | [5] 14 µM | [6] 32.4 µM | [7] 10.8 µM | [8] 15.6 µM | [9] 3.69 µM | [10] 15.8 µM | [11] 15.5 µM | [12] 4.31 µM | [14] 19.9 µM | [15] 12.3 µM | [16] 22.7 µM | [17] 9.57 µM | [18] 11.1 µM | [19] 12.2 µM

Cc1n[nH]c(=O)n1N=C(c1ccccc1)c1ccccc1
inactive: [2] > 100 µM | [3] > 100 µM | [4] > 100 µM | [5] > 100 µM | [6] > 100 µM | [7] > 100 µM | [8] > 100 µM | [9] > 100 µM | [10] > 100 µM | [11] > 100 µM | [12] > 100 µM | [13] > 100 µM | [14] > 100 µM | [15] > 100 µM | [16] > 100 µM | [17] 1.26 µM | [18] > 100 µM

Cc1ccc(NC(=O)c2cc3ccccc3c(/N=N/c3cc(S(=O)(=O)O)ccc3O)c2O)c(C)c1
inactive: [2] 25.6 µM | [3] 41.7 µM | [5] 16.1 µM | [6] 42.3 µM | [7] 23.8 µM | [8] 16.2 µM | [9] 19.2 µM | [10] 4.33 µM | [11] 5.97 µM | [12] 23.7 µM | [13] 21.2 µM | [14] 15.8 µM | [15] 23 µM | [16] 15.5 µM | [17] 17.5 µM | [18] 17.1 µM | [19] 23.3 µM

CC12C(=O)OC(=O)C1(C)C1C=CC2O1 (stereo not given)
inactive: [1] > 100 µM | [2] > 100 µM | [3] > 100 µM | [4] > 100 µM | [5] > 100 µM | [6] > 100 µM | [7] > 100 µM | [8] > 100 µM | [9] > 100 µM | [10] > 100 µM | [20] > 100 µM | [11] > 100 µM | [12] 66.4 µM | [14] 37.8 µM | [15] > 100 µM | [16] > 100 µM | [17] 40.6 µM | [18] > 100 µM | [19] 14.9 µM

CC1(C)CCSC(/C=C/c2ccccc2)=N1
inactive: [1] 19.8 µM | [2] 14.7 µM | [4] 12.1 µM | [5] 12 µM | [6] 20.1 µM | [7] 13 µM | [8] 12.9 µM | [9] 35.8 µM | [10] 17.9 µM | [20] 33.1 µM | [11] 17.5 µM | [12] 15.2 µM | [13] 13.4 µM | [14] 20.1 µM | [15] > 100 µM | [17] 21.6 µM | [18] 19 µM

COc1cc2c(cc1OC)C1=C(C=O)c3ccc(OC)c(OC)c3C(O)N1CC2 (stereo not given)
inactive: [1] 12.9 µM | [2] 26.4 µM | [3] 33.2 µM | [4] 30.8 µM | [5] 28.9 µM | [6] 21.8 µM | [7] 18.5 µM | [8] 35.2 µM | [9] 28.1 µM | [10] 19.2 µM | [20] 16.3 µM | [11] 28.2 µM | [12] 13.3 µM | [14] 26.2 µM | [16] 13.8 µM | [18] 12.5 µM | [19] 4.75 µM

O=C1/C(=C/c2ccc(Cl)cc2)Sc2scc(-c3cccc([N+](=O)[O-])c3)[n+]21
active: [20] 0.308 µM | [15] 0.459 µM | [19] 0.971 µM
inactive: [1] 2.3 µM | [2] 2.37 µM | [3] 2.77 µM | [4] 4.53 µM | [5] 2.89 µM | [7] 4.61 µM | [8] 2.16 µM | [9] 7.11 µM | [10] 4.55 µM | [11] 2.49 µM | [12] 2.61 µM | [13] 2.17 µM | [14] 15.6 µM | [16] 3.16 µM | [17] 2.42 µM | [18] 2.04 µM

CN1C(=O)C2(C)SC1(c1ccccc1)C1C(=O)N(c3ccccc3)C(=O)C12 (stereo not given)
inactive: [1] > 100 µM | [2] 38.6 µM | [3] > 100 µM | [5] 66.1 µM | [6] 49.9 µM | [7] 26.4 µM | [8] > 100 µM | [9] > 100 µM | [10] 67.9 µM | [20] 47.1 µM | [11] 91.8 µM | [12] 97.7 µM | [13] 36.6 µM | [14] > 100 µM | [15] 57.4 µM | [16] 65.3 µM | [17] > 100 µM | [18] 40.9 µM

CC(C)(C)[Si](C)(C)OC1(CCc2ccccc2OS(=O)(=O)C(F)(F)F)CCCC=C1COCc1ccccc1 (stereo not given)
inactive: [1] > 100 µM | [2] > 100 µM | [5] 14 µM | [6] 66.4 µM | [8] > 100 µM | [9] > 100 µM | [10] 5 µM | [20] 2.42 µM | [11] 35.4 µM | [15] 5.71 µM | [16] 29.5 µM | [17] 48.2 µM | [18] 5.14 µM | [19] 8.61 µM

Cc1ccc(-c2cc(=O)c(=O)[nH][nH]2)cc1
inactive: [1] > 100 µM | [2] > 100 µM | [3] > 100 µM | [4] > 100 µM | [5] > 100 µM | [6] > 100 µM | [7] > 100 µM | [8] > 100 µM | [9] > 100 µM | [10] > 100 µM | [11] > 100 µM | [12] > 100 µM | [13] > 100 µM | [15] > 100 µM | [16] > 100 µM | [17] > 100 µM | [18] > 100 µM | [19] 18 µM

C=C1C[C@@H]2CC[C@@]34CC5O[C@H]6C(O[C@H]7CC[C@H](CC(=O)O[C@@H]8[C@@H](C)[C@@H]9O[C@@H]%10C[C@]%11(C[C@@H]%12O[C@]%13(C[C@H](C)[C@@H]%14O[C@@H]%15CC(C(COC(C)=O)OC(C)=O)O[C@@H]%15C[C@@H]%14O%13)C[C@H](C)[C@@H]%12O%11)O[C@@H]%10C[C@@H]9O[C@H]8CC8O[C@@H](CC[C@@H]1O2)C[C@@H](C)C8(O)CO)O[C@@H]7[C@@H]6O3)[C@H]5O4 (stereo not given in full)
active: [2] > 1 µM | [3] > 0.838 µM | [4] 0.258 µM | [5] 0.327 µM | [6] > 0.597 µM | [7] 0.0716 µM | [8] 0.392 µM | [9] 0.375 µM | [10] 0.436 µM | [11] 0.708 µM | [12] 0.243 µM | [13] > 1 µM | [14] 0.701 µM | [15] 0.513 µM | [16] 0.242 µM | [17] 0.0359 µM | [18] > 0.548 µM | [19] 0.336 µM

O=C(COc1ccc(OCC(=O)NNC2=NC(c3cc(F)c(Cl)cc3Cl)CS2)c(Cl)c1)NNC1=NC(c2cc(F)c(Cl)cc2Cl)CS1 (stereo not given)
inactive: [1] 28.6 µM | [2] 44.8 µM | [3] 20.7 µM | [4] 29.9 µM | [5] 44.4 µM | [6] 23.7 µM | [7] 48 µM | [8] 60.4 µM | [9] 22.8 µM | [10] 14.4 µM | [20] 38.1 µM | [11] 38.5 µM | [13] 21.6 µM | [14] 42.5 µM | [15] 24 µM | [16] 18.6 µM | [17] 19.8 µM | [18] 26.2 µM
